# Assay results: patent US10441663B2, “Methods for treating cancer” (Bicycle Therapeutics Limited, priority 2016, dated 2019)
# *1 amine or outer side, *2 acyl side, *3 side chain or, on linkers, in order; H or OH if unused. Where a SMILES comes first, the peptide text is derived from it. Bridges are numbered along the chain shown (N, C = ends). [ ]: non-standard residue; d: D form. The star is where a group is joined. X1 = COc1cc2cc(c1Cl)N(C)C(=O)C[C@H](OC(=O)[C@H](C)N(C)C(=O)CCSSC(C)CCC(=O)*)[C@]1(C)O[C@H]1[C@H](C)[C@@H]1C[C@@](O)(NC(=O)O1)[C@H](OC)/C=C/C=C(\C)C2; 1Nal = N[C@@H](Cc1cccc2ccccc12)C(=O)O; TBMB = c1c(C[*:1])cc(C[*:3])cc1C[*:2]; Tle = CC(C)(C)[C@H](N)C(=O)O; βAla = NCCC(=O)O; Sar = CNCC(=O)O
# What was measured:
# [1] = tested on: HCT-15 xenograft; assay: In vivo efficacy of BT1718 in HCT-15 xenograft; parameters: species or system Mus Musculus
# Experimental: (§1) The objective of this study was to evaluate the in vivo anti-tumor efficacy of BT1718in treatment of HT1080, NCI-H292, NCI-H1975, MDA-MB-231, HCC1806, RPMI2650, HCT-15, HT-29 and SNU-16 xenograft in BALB/c nude mice.
# (§2) The HT1080, NCI-H292, NCI-H1975, MDA-MB-231, HCC1806, RPMI2650, HCT-15, HT-29 and SNU-16 tumor cells were maintained in vitro as a monolayer culture in medium supplemented with 10% heat inactivated fetal bovine serum at 37° C. in an […]. The tumor cells will be routinely subcultured twice weekly by trypsin-EDTA treatment. The cells growing in an exponential growth phase will be harvested and counted for tumor inoculation.
# (§3) Mouse was inoculated subcutaneously at the right flank with tumor cells for tumor development. The animals were randomized and treatment was started when the average tumor reaches certain volume for the efficacy study, the inoculating cell amounts and starting tumor size were shown as below in Table 9. The test article administration and the animal numbers in each group were shown in the experimental design in Table 10.
# (§4) All the procedures related to animal handling, care and the treatment in the study were performed according to the guidelines of the Association for Assessment and Accreditation of Laboratory Animal Care (AAALAC). At the time of routine monitoring, the animals were daily checked for any effects of tumor growth and treatments on normal behavior such as mobility, food and water consumption (by looking only), body weight gain/loss (body weights were measured every day), eye/hair matting and any other abnormal effect as stated in the protocol. Death and observed clinical signs were recorded on the basis of the numbers of animals within each subset.
# (§5) The major endpoint was to see if the tumor growth could be delayed or mice could be cured. Tumor size was measured three times weekly in two dimensions using a caliper, and the volume was expressed in mm^3 using the formula: V=0.5 a×b^2 where a and b are the long and short diameters of the tumor, respectively. The tumor size was then used for calculations of T/C value. The T/C value (in percent) is an indication of antitumor effectiveness; T and C are the mean volumes of the treated and control groups, respectively, on a given day.
# (§6) TGI was calculated for each group using the formula: TGI (%)=[1−(Ti−T0)/(Vi−V0)]×100; Ti is the average tumor volume of a treatment group on a given day, T0 is the average tumor volume of the treatment group on the day of treatment start, Vi is the average tumor volume of the vehicle control group on the same day with Ti, and V0 is the average tumor volume of the vehicle group on the day of treatment start.
# (§7) Summary statistics, including mean and the standard error of the mean (SEM), are provided for the tumor volume of each group at each time point.
# (§8) Statistical analysis of difference in tumor volume among the groups was conducted on the data obtained at the best therapeutic time point after the final dose.
# (§9) A one-way ANOVA was performed to compare tumor volume among groups, and when a significant F-statistics (a ratio of treatment variance to the error variance) was obtained, comparisons between groups were carried out with Games-Howell test. All data were analyzed using Prism. P<0.05 was considered to be statistically significant.
# [2] = tested on: NCI-H292 xenograft; assay: In vivo efficacy of BT1718 in NCI-H292 xenograft; parameters: species or system Mus Musculus; key to Best response at 10 mg/kg: CR complete response; PR partial response
# Experimental: as §1, §2, §3, §4, §5, §6, §7, §8, §9
structure (smiles),measurement,setting,value
COc1cc2cc(c1Cl)N(C)C(=O)C[C@H](OC(=O)[C@H](C)N(C)C(=O)CCSSC(C)CCC(=O)NCCC(=O)N(C)CC(=O)N(C)CC(=O)N(C)CC(=O)N(C)CC(=O)N(C)CC(=O)N(C)CC(=O)N(C)CC(=O)N(C)CC(=O)N(C)CC(=O)N(C)CC(=O)N[C@@H](C)C(=O)N[C@H]1CSCc3cc4cc(c3)CSC[C@H](NC(=O)[C@@H](C)NC(=O)[C@H](Cc3cccc5ccccc35)NC(=O)[C@H](CCC(=O)O)NC(=O)[C@H](CC(N)=O)NC(=O)[C@@H](C)NC1=O)C(=O)N[C@@H](CCC(=O)O)C(=O)N[C@@H](CC(=O)O)C(=O)N[C@@H](Cc1ccccc1)C(=O)N[C@@H](Cc1ccc(O)cc1)C(=O)N[C@@H](CC(=O)O)C(=O)N[C@@H](C(C)(C)C)C(=O)N[C@H](C(N)=O)CSC4)[C@]1(C)O[C@H]1[C@H](C)[C@@H]1C[C@@](O)(NC(=O)O1)[C@H](OC)/C=C/C=C(\C)C2 (stereo partly drawn) [BT1718] ({X1-βAla}-[Sar][Sar][Sar][Sar][Sar][Sar][Sar][Sar][Sar][Sar]AC[dA]NE[1Nal][dA]CEDFYD[Tle]C-NH2; linker 12-18-25 via TBMB (inferred)),Body Weight,"[1]; 1 mpk biw, day 0",22.2 ± 0.5 g
same,Tumor Volume,"[1]; 1 mpk biw, day 0",157 ± 6 mm^3
same,Body Weight,"[1]; 1 mpk biw, day 2",21.8 ± 0.3 g
same,Tumor Volume,"[1]; 1 mpk biw, day 2",174 ± 9 mm^3
same,Body Weight,"[1]; 1 mpk biw, day 4",21.6 ± 0.6 g
same,Tumor Volume,"[1]; 1 mpk biw, day 4",207 ± 14 mm^3
same,Body Weight,"[1]; 1 mpk biw, day 7",22.3 ± 0.5 g
same,Tumor Volume,"[1]; 1 mpk biw, day 7",385 ± 19 mm^3
same,Body Weight,"[1]; 1 mpk biw, day 9",21.9 ± 0.3 g
same,Tumor Volume,"[1]; 1 mpk biw, day 9",585 ± 26 mm^3
same,Body Weight,"[1]; 1 mpk biw, day 11",21.9 ± 0.5 g
same,Tumor Volume,"[1]; 1 mpk biw, day 11",937 ± 70 mm^3
same,Body Weight,"[1]; 1 mpk biw, day 14",22.1 ± 0.5 g
same,Tumor Volume,"[1]; 1 mpk biw, day 14",1238 ± 36 mm^3
same,Body Weight,"[1]; 3 mpk biw, day 0",21.6 ± 0.5 g
same,Tumor Volume,"[1]; 3 mpk biw, day 0",157 ± 6 mm^3
same,Body Weight,"[1]; 3 mpk biw, day 2",21.4 ± 0.2 g
same,Tumor Volume,"[1]; 3 mpk biw, day 2",140 ± 7 mm^3
same,Body Weight,"[1]; 3 mpk biw, day 4",21.6 ± 0.2 g
same,Tumor Volume,"[1]; 3 mpk biw, day 4",195 ± 26 mm^3
same,Body Weight,"[1]; 3 mpk biw, day 7",22.7 ± 0.4 g
same,Tumor Volume,"[1]; 3 mpk biw, day 7",389 ± 47 mm^3
same,Body Weight,"[1]; 3 mpk biw, day 9",22.2 ± 0.4 g
same,Tumor Volume,"[1]; 3 mpk biw, day 9",581 ± 54 mm^3
same,Body Weight,"[1]; 3 mpk biw, day 11",22.2 ± 0.5 g
same,Tumor Volume,"[1]; 3 mpk biw, day 11",901 ± 79 mm^3
same,Body Weight,"[1]; 3 mpk biw, day 14",22.3 ± 0.6 g
same,Tumor Volume,"[1]; 3 mpk biw, day 14",1180 ± 143 mm^3
same,Body Weight,"[1]; 10 mpk biw, day 0",22.2 ± 0.3 g
same,Tumor Volume,"[1]; 10 mpk biw, day 0",157 ± 11 mm^3
same,Body Weight,"[1]; 10 mpk biw, day 2",21.2 ± 0.2 g
same,Tumor Volume,"[1]; 10 mpk biw, day 2",130 ± 7 mm^3
same,Body Weight,"[1]; 10 mpk biw, day 4",20.2 ± 0.5 g
same,Tumor Volume,"[1]; 10 mpk biw, day 4",138 ± 14 mm^3
same,Body Weight,"[1]; 10 mpk biw, day 7",21.7 ± 0.3 g
same,Tumor Volume,"[1]; 10 mpk biw, day 7",265 ± 16 mm^3
same,Body Weight,"[1]; 10 mpk biw, day 9",19.9 ± 0.3 g
same,Tumor Volume,"[1]; 10 mpk biw, day 9",342 ± 47 mm^3
same,Body Weight,"[1]; 10 mpk biw, day 11",20.3 ± 0.7 g
same,Tumor Volume,"[1]; 10 mpk biw, day 11",562 ± 73 mm^3
same,Body Weight,"[1]; 10 mpk biw, day 14",20.8 ± 0.8 g
same,Tumor Volume,"[1]; 10 mpk biw, day 14",880 ± 89 mm^3
same,Best response at 10 mg/kg,"[1]; HCT-15, 10 mg/kg",Growth delay
same,TGI,"[1]; HCT-15, 1 mpk, biw, day 14",−0.9%
same,Tumor Volume,"[1]; HCT-15, 1 mpk, biw, day 14",1238 ± 36 mm^3
same,TGI,"[1]; HCT-15, 3 mpk, biw, day 14",4.6%
same,Tumor Volume,"[1]; HCT-15, 3 mpk, biw, day 14",1180 ± 143 mm^3
same,TGI,"[1]; HCT-15, 10 mpk, biw, day 14",32.5%
same,Tumor Volume,"[1]; HCT-15, 10 mpk, biw, day 14",880 ± 89 mm^3
same,Minimally Effective Dose IV BIW,"[1]; HCT-15, dose leading to tumor-stasis",>10 mg/kg
same,anti-tumor activity,"[1]; mouse, in vivo",did not show obvious anti-tumor activity
same,tumors that failed to respond on resumed treatment,[2]; 10 mg/kg biw re-treatment,1/3
same,tumors with lack of clear tumor growth on re-treatment,[2]; 10 mg/kg biw re-treatment,2/3
same,Body Weight,"[2]; 1 mpk biw, day 0",22.8 ± 0.7 g
same,Tumor Volume,"[2]; 1 mpk biw, day 0",153 ± 9 mm^3
same,Body Weight,"[2]; 1 mpk biw, day 2",22.9 ± 0.3 g
same,Tumor Volume,"[2]; 1 mpk biw, day 2",215 ± 25 mm^3
same,Body Weight,"[2]; 1 mpk biw, day 4",23.4 ± 0.5 g
same,Tumor Volume,"[2]; 1 mpk biw, day 4",326 ± 49 mm^3
same,Body Weight,"[2]; 1 mpk biw, day 7",23.6 ± 0.6 g
same,Tumor Volume,"[2]; 1 mpk biw, day 7",514 ± 54 mm^3
same,Body Weight,"[2]; 1 mpk biw, day 9",23.7 ± 0.7 g
same,Tumor Volume,"[2]; 1 mpk biw, day 9",669 ± 53 mm^3
same,Body Weight,"[2]; 1 mpk biw, day 11",23.4 ± 0.7 g
same,Tumor Volume,"[2]; 1 mpk biw, day 11",978 ± 97 mm^3
same,Body Weight,"[2]; 1 mpk biw, day 14",23.5 ± 1.0 g
same,TGI (%),"[2]; 1 mpk biw, day 14",20.7%
same,Tumor Volume,"[2]; 1 mpk biw, day 14",1174 ± 98 mm^3
same,Tumor Volume(mm^3),"[2]; 1 mpk biw, day 14",1174 ± 98 mm^3
same,Body Weight,"[2]; 3 mpk biw, day 0",22.7 ± 0.5 g
same,Tumor Volume,"[2]; 3 mpk biw, day 0",151 ± 15 mm^3
same,Body Weight,"[2]; 3 mpk biw, day 2",23.5 ± 0.4 g
same,Tumor Volume,"[2]; 3 mpk biw, day 2",226 ± 22 mm^3
same,Body Weight,"[2]; 3 mpk biw, day 4",23.2 ± 0.7 g
same,Tumor Volume,"[2]; 3 mpk biw, day 4",334 ± 65 mm^3
same,Body Weight,"[2]; 3 mpk biw, day 7",23.4 ± 0.8 g
same,Tumor Volume,"[2]; 3 mpk biw, day 7",443 ± 70 mm^3
same,Body Weight,"[2]; 3 mpk biw, day 9",22.9 ± 0.9 g
same,Tumor Volume,"[2]; 3 mpk biw, day 9",591 ± 90 mm^3
same,Body Weight,"[2]; 3 mpk biw, day 11",22.6 ± 1.0 g
same,Tumor Volume,"[2]; 3 mpk biw, day 11",781 ± 178 mm^3
same,Body Weight,"[2]; 3 mpk biw, day 14",22.0 ± 1.2 g
same,TGI (%),"[2]; 3 mpk biw, day 14",40.3%
same,Tumor Volume,"[2]; 3 mpk biw, day 14",920 ± 258 mm^3
same,Tumor Volume(mm^3),"[2]; 3 mpk biw, day 14",920 ± 258 mm^3
same,Body Weight,"[2]; 10 mpk biw, day 0",22.8 ± 0.4 g
same,Tumor Volume,"[2]; 10 mpk biw, day 0",153 ± 6 mm^3
same,Body Weight,"[2]; 10 mpk biw, day 2",22.1 ± 0.3 g
same,Tumor Volume,"[2]; 10 mpk biw, day 2",152 ± 8 mm^3
same,Body Weight,"[2]; 10 mpk biw, day 4",21.7 ± 0.3 g
same,Tumor Volume,"[2]; 10 mpk biw, day 4",151 ± 32 mm^3
same,Body Weight,"[2]; 10 mpk biw, day 7",22.4 ± 0.3 g
same,Tumor Volume,"[2]; 10 mpk biw, day 7",159 ± 49 mm^3
same,Body Weight,"[2]; 10 mpk biw, day 9",21.8 ± 0.2 g
same,Tumor Volume,"[2]; 10 mpk biw, day 9",158 ± 49 mm^3
same,Body Weight,"[2]; 10 mpk biw, day 11",21.8 ± 0.2 g
same,Tumor Volume,"[2]; 10 mpk biw, day 11",143 ± 52 mm^3
same,Body Weight,"[2]; 10 mpk biw, day 14",22.5 ± 0.4 g
same,TGI (%),"[2]; 10 mpk biw, day 14",101.6%
same,Tumor Volume,"[2]; 10 mpk biw, day 14",133 ± 44 mm^3
same,Tumor Volume(mm^3),"[2]; 10 mpk biw, day 14",133 ± 44 mm^3
same,Best response at 10 mg/kg,"[2]; NCI-H292, 10 mg/kg",CR
same,Minimally Effective Dose IV BIW,"[2]; NCI-H292, dose leading to tumor-stasis",<10 mg/kg
same,dosing suspension until re-growth to 150 mm3,[2]; after 10 mg/kg biw,2-3 weeks
same,tumor volume after regression,[2]; after 4 weeks 10 mg/kg biw,below 50 mm3
